Experimental data as given in EP1222180B1, “ENANTIOMERIC COMPOUNDS FOR TREATMENT OF CARDIAC ARRHYTHMIAS AND METHODS OF USE” (ARYx Therapeutics, priority 1999, dated 2001).
Values belong to the compound of their own block, whether it stands above or below them.

Legend:
anesthetized rats = assay: Anti-arrhythmic activity in anesthetized rats (benzene/adrenaline challenge, EKG recording); assay type: in vivo, Male Sprague-Dawley rats; details: for protection against tachyarrhythmia (heart rate increase after adrenaline): administered from time 0 to time 120 minutes, Figure 3; for inhibition of the formation of ventricular premature beats (VPB): period of drug administration (time 0 to 120 min); for Heart rate (beats/minute) / Inhibition of VPB / Inhibition of tachycardia / Number of VPB / PR interval / QRS interval / QT interval: isolated enantiomer compared to the racemate, 4 mg/kg i.v. then 12 mg/kg/h for 2 hours; for anti-VPB activity at the end of the washout period: time 180 min
Description: Male Sprague-Dawley rats with body weights of 410 ± 30 g (Harlan Sprague Dawley Inc., Indianapolis, IN), were anesthetized with sodium pentobarbital (50 mg/kg i.p. - Butler Co., Columbus, OH). The skin from the neck area was removed and the jugular veins on both sides were cleared of connective tissue. Both jugular veins and the left carotid artery were isolated, and the latter tied up cranially with a surgical silk (ETHICON 4-0, Ethicon Inc., Australia). A plastic catheter ([…] 19ga, Vecton Dickinson, Sandy, UT), filled with a solution containing 10% sodium heparin (Elkins-Sinn Inc., Cherry Hill, NJ) in normal saline (100 U/ml sodium heparin), was introduced into the artery and fixed with surgical silk.
The catheter was connected to a pressure transducer (OHMEDA P23-XL, Ohmeda Medical Devices Division Inc., Madison, WI), filled with the same heparinized 0.9% NaCl solution, to register beat-to-beat arterial pressure. Needle electrodes were inserted s.c., and together with the pressure transducer, were joined to a GOULD TA 2000 recorder. Leads II, aVF and intraarterial blood pressure were monitored simultaneously throughout the experiments and recorded at certain intervals at 50 and 200 mm/sec paper speed.
The surgery was completed with an incision on the trachea where a short plastic tubing was placed and the animal was connected to a rodent-model ventilator (HARVARD Model 683, Harvard Apparatus, Inc., Holliston, MA). The animals were ventilated in a controlled way, depending on their spontaneous breathing frequency (55-75/min).
Drug administrations were carried out through i.v. catheters (TERUMO 24 GA*3/4", Terumo Medical Corp., Elkton, MD) inserted into both jugular veins. The left side was used for drug infusions by means of a syringe pump (SAGE INSTRUMENTS, Model 341B, Orion Res. Inc., Boston, MA), and the right side was used for adrenaline injections. The experiments were started after at least 15 minutes of stabilization. Benzene/adrenaline challenges were performed as follows: the respirator inlet was connected to a 50-ml bubbler half-full with benzene (Fisher Scientific, Fair Lawn, NJ) so that the inspired air was saturated with benzene vapor. The animal was ventilated with benzene vapor for two minutes. The tidal volume was typically 1 ml/100g of animal. During the last 30 seconds of benzene ventilation, 10 µg/kg adrenaline solution (in 0.9% NaCl) was injected into the right jugular vein. […] These arrhythmias could be elicited repeatedly. After three control VTs (at -30, -20 and -10 minutes), the test compounds were injected slowly during 30 seconds at a dose of 4 mg/kg i.v., immediately followed by a slow infusion of 12 mg/kg/h for 2 hours. The flow rate during the infusion period was 1 ml/h.
There were 5 rats per test compound and each animal served as its own control. The ability of the different drugs to suppress arrhythmias was tested against repeated benzene/adrenaline challenges at 5, 15, 30, 45, 60, 90, 120 (end of drug infusion), 135, 150, 165 and 180 minutes after the i.v. bolus injection. The amplitudes of the systolic arterial pressure and diastolic arterial pressure […] with the help of a pressure-amplitude calibration curve. Heart rate, number of ventricular complexes during the occurrence of VTs and VPBs, and certain ECG parameters (PR, QRS, QT durations and RR cycle lengths in msec) were also recorded and measured manually. At each time-point, 3-5 cycles were measured and the average values were entered into EXCEL Windows 97. The average and standard deviation for the five experimental animals per compound were calculated.

[1] = assay type: in vitro ADME; details: human; for hydrolysis half-life: plasma
Description: Venous blood (60 ml) was collected in heparinized 15-ml Vacutainer® tubes from the forearm of five human volunteers. Each tube contained 1,000 units of heparin sodium salt. The blood was immediately centrifuged at 2,000 g for 10 minutes and the plasma was collected. Immediately after collection, the plasma was divided into 2-ml aliquots in borosilicate glass tubes (5-ml capacity) capped with a plastic stopper. The tubes were then equilibrated in a 37°C-water bath for at least 15 minutes before the test samples were added. Stock solutions were prepared by dissolving 25 µmoles (about 18 mg) of each of the test compounds in 10 ml of deionized water. To each of the glass tubes containing 2 ml of fresh plasma, equilibrated at 37°C, was added 40 µl of the stock solutions (one test compound per tube). The plasma/stock solutions were then mixed. Samples (250 µl) were collected at time 0 (immediately after mixing test compounds in plasma) and then at 30, 60, 90, 120, 180, 240, and 300 minutes. The test tubes were capped, to avoid concentration due to evaporation, and left in the 37°C bath during the entire experiment. […] The tubes were then capped and vortexed, then kept at -20°C until analysis. […] The supernatant was collected for injection in the HPLC system. […] The detection wavelength was set at 242 nm, and the injected volume was 100 µL. The HPLC peaks were recorded, and the integrated values were plotted against time using the SIGMAPLOT software version 4.0 for WINDOWS. The resulting curves were fitted to a first-order exponential decay equation from which hydrolysis half-lives were calculated.

[2] = benzene vapors and adrenaline challenge, Figure 2

SMILES: CC[C@H](C)OC(=O)Cc1oc2ccccc2c1C(=O)c1cc(I)c(OCCN(CC)CC)c(I)c1 [R,S-2042]
- protection against tachyarrhythmia (heart rate increase after adrenaline) (anesthetized rats): the least potent and shortest acting
- inhibition of the formation of ventricular premature beats (VPB) (anesthetized rats; [2]): even less active than either the R- or the S-isomer

- Plasma half-life [1]: 7.3 h
- hydrolysis half-life [1]: 7.3 h
SMILES: CC[C@H](C)OC(=O)Cc1oc2ccccc2c1C(=O)c1cc(I)c(OCCN(CC)CC)c(I)c1 [S-2042, (S)-sec-Butyl 2-[3-(3,5-diiodo-4-(2-diethylaminoethyloxy)benzoyl)]benzofurane-acetate]
- effects on the QT segment of the EKG recording (Class-III properties) (anesthetized rats; Figure 4): the most potent and the longest acting
- effects on the PR segment of the EKG recording (Class-IV activity) (anesthetized rats; Figure 6): much more potent than R-2042 and the racemate R,S-2042
- protection against tachyarrhythmia (heart rate increase after adrenaline) (anesthetized rats): more potent and longer acting then R-2042
- Heart rate (beats/minute) (anesthetized rats): lower
- Inhibition of VPB (anesthetized rats): longer
- Inhibition of tachycardia (anesthetized rats): longer
- Number of VPB (anesthetized rats): lower
- PR interval (anesthetized rats): longer
- QRS interval (anesthetized rats): longer
- QT interval (anesthetized rats): longer
- inhibition of the formation of ventricular premature beats (VPB) (anesthetized rats; [2]): totally inhibited the formation of ventricular premature beats for the whole period of drug administration
- anti-VPB activity at the end of the washout period (anesthetized rats; [2]): still retained part of its activity

- Plasma half-life [1]: 5.0 h
- hydrolysis half-life [1]: 5 h
SMILES: CC[C@@H](C)OC(=O)Cc1oc2ccccc2c1C(=O)c1cc(I)c(OCCN(CC)CC)c(I)c1 [R-2042, (R)-sec-Butyl 2-[3-(3,5-diiodo-4-(2-diethylaminoethyloxy)benzoyl)]benzofurane-acetate]
- time at which anti-VPB activity is lost (anesthetized rats; [2]): ~100 min
- Heart rate (beats/minute) (anesthetized rats): lower
- Inhibition of VPB (anesthetized rats): longer
- Inhibition of tachycardia (anesthetized rats): longer
- Number of VPB (anesthetized rats): lower
- PR interval (anesthetized rats): shorter
- QRS interval (anesthetized rats): no change
- QT interval (anesthetized rats): no change
- anti-VPB activity at the end of the washout period (anesthetized rats; [2]): completely inactive

SMILES: CC[C@H](C)OC(=O)Cc1oc2ccccc2c1C(=O)c1cc(I)c(OCCN(CC)CC)c(I)c1 [ATI-2042]
- protection against tachyarrhythmia (heart rate increase after adrenaline) (anesthetized rats): very good protection against this tachyarrhythmia
